In article PMC7933930, “Development of a small molecule that corrects misfolding and increases secretion of Z α1‐antitrypsin” (EMBO Molecular Medicine, 2021):

Columns and labels:
NK1 (TACR1) = NK1 (TACR1) (Homo sapiens, UniProt P25103); assay: Off‐target panel: NK1 (TACR1) (DRX); type: cell-based; details: Antagonist, read-out: Mean (PXC50)
Protocol: (§1) GSK716 selectivity and PK properties were profiled in order to investigate the suitability of GSK716 for progression into in vivo studies and the potential for taking it forward as a clinical candidate for testing in humans. Since GSK716 results in loss of inhibitory activity of α1‐antitrypsin, the effect of the compound was assessed on other closely related serpins. […] Furthermore, there were no off‐target effects in a panel of assays considered predictive of known safety liabilities that precluded further development of GSK716 (Table EV1).

Z α1‐antitrypsin = Z α1‐antitrypsin (Homo sapiens, UniProt P01009, E366K); assay: Circulating monomeric Z α1‐antitrypsin in plasma of Z α1‐antitrypsin transgenic mice; type: in vivo, mouse; design: random insertion of the human Z α1‐antitrypsin gene; from tissue; host or cells: hemizygous Z α1-antitrypsin transgenic mice (liver, plasma)
Z α1‐antitrypsin, sequence (P01009 25-418 E366K): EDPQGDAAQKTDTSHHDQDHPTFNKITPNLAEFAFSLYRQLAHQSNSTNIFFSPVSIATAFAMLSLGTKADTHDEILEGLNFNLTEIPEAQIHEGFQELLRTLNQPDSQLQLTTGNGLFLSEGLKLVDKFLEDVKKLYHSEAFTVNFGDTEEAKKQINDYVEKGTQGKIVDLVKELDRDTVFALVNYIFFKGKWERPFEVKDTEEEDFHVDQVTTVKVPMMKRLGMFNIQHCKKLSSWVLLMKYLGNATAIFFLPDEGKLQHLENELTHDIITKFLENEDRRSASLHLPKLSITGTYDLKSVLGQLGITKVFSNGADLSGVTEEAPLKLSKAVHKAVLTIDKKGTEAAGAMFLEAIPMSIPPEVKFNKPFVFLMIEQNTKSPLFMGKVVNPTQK
Protocol: GSK716 was evaluated in a transgenic mouse model with an engineered random insertion of the human Z α1‐antitrypsin gene (Teckman et al, 2004). […] Further, older mice have larger α1‐antitrypsin inclusions that may be more difficult to reverse and any changes would be more difficult to detect than in younger animals. The PK‐PD relationship of GSK716 was explored by dosing Z α1‐antitrypsin transgenic animals with 10, 30 or 100 mg/kg GSK716 three times a day. Blood and liver were harvested on day 6 at 3 h (~ C max) and 8 h (C min) after the dose for the measurement of total and free drug in both tissues. Blood was also harvested for the measurement of monomeric Z α1‐antitrypsin in plasma. Total concentrations of GSK716 were determined by LC‐MS/MS, and the free drug in both tissues was determined using equilibrium dialysis to determine free fraction in the samples, subsequently used to derive unbound concentrations. […] Both free and total drug concentrations of GSK716 at the targeted site of action in the liver were equivalent to those in blood (Table 2).
A significant fraction of the total Z α1‐antitrypsin in the circulation is in the polymeric conformation (Tan et al, 2014). There are no antibodies that are specific for monomeric Z α1‐antitrypsin and so to directly determine its concentration, a deconvolution method was developed based on immunoassays with antibodies for either total or polymeric α1‐antitrypsin, and calibration curves with purified monomeric and polymeric Z α1‐antitrypsin. Monomeric Z α1‐antitrypsin was measured in plasma samples following 6 days of dosing, and levels were normalised to each animals’ pre‐dose control levels to account for the natural variation of Z α1‐antitrypsin between animals. […] Total drug levels and changes in Z α1‐antitrypsin following 3 days of dosing were indistinguishable from those following 6 days of dosing. There was no effect on circulating serum albumin after 5 days of dosing which provides evidence that GSK716 is specific for Z α1‐antitrypsin. Moreover, the effects are not mediated by metabolites of GSK716 as the major metabolites have much reduced or no binding to α1‐antitrypsin.
Plasma standards of monomeric and polymeric Z α1‐antitrypsin were prepared and assayed with an antibody mix comprising a 1:160 dilution of rabbit polyclonal anti‐ α1‐antitrypsin (Abcam product 9373), 0.23 µg/ml terbium anti‐mouse, 4.5 µg/ml Alexa488 goat anti‐rabbit, 0.17 µg/ml mouse anti‐total‐ α1‐antitrypsin monoclonal 3C11 and 2 µg/ml mouse 2C1 anti‐polymeric‐ α1‐antitrypsin. After a 16‐h incubation at 20°C, TR‐FRET detection was performed on an Envision plate reader (Perkin Elmer).
Plots of the FRET ratio (acceptor/donor signal) versus sample dilution result in bell‐shaped curves due to the hook effect. The polymer Z α1‐antitrypsin concentration was determined by comparing the peak positions of these bell‐shaped curves for plasma samples with those for polymer calibration samples. The polymer concentration in the plasma sample and the polymer calibration curve was then used to derive the contribution of polymer to the FRET signal in the total α1‐antitrypsin assay at the signal peak, enabling determination of the concentration of monomeric Z α1‐antitrypsin.
Hemizygous female Z α1‐antitrypsin transgenic mice were 13–15 weeks of age at start of study. Drugs were administered via oral gavage three times a day at 8‐h intervals at 10 ml/Kg as a suspension in aqueous methylcellulose containing 0.5% w/v Tween 80. […]

Serotonin transporter = Serotonin transporter (Homo sapiens, UniProt P31645); assay: Off‐target panel: Serotonin transporter; type: cell-based
Serotonin transporter, sequence (P31645 whole entry): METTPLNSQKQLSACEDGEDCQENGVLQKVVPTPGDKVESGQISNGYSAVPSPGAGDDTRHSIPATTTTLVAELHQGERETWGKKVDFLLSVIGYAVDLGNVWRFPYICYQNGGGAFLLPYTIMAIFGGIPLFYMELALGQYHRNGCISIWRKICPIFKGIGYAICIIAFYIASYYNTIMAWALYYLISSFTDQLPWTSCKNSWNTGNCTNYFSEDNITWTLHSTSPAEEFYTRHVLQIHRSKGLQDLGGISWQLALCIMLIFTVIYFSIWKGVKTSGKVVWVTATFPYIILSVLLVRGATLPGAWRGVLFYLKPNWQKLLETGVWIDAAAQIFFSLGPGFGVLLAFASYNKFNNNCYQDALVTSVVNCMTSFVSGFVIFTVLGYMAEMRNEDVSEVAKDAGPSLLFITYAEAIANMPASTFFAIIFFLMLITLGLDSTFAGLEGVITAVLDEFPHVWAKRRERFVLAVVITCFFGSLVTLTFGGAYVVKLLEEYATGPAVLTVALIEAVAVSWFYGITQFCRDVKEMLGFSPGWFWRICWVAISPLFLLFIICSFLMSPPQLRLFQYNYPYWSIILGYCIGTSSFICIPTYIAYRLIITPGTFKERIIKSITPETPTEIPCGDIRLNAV
Protocol: as §1

Serotonin 5HT2A [1] = target: T1, Serotonin 5HT2A (Homo sapiens, UniProt P28223); assay: Off‐target panel: Serotonin 5HT2A (DRX); type: cell-based
T1 sequence (P28223 whole entry): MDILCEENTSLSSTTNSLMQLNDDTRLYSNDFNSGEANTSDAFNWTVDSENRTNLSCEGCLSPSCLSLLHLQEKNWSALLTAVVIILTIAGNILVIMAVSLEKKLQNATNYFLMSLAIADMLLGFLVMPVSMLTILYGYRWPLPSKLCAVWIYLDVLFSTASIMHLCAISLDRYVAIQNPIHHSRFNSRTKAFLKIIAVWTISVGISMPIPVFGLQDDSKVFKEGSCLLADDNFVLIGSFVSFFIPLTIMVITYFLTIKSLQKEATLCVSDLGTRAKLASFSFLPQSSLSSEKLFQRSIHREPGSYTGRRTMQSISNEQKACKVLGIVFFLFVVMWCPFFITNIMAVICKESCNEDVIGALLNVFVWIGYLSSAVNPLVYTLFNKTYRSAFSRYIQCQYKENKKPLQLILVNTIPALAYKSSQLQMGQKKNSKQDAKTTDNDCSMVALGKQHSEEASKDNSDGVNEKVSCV
Protocol: as §1

Serotonin 5HT2A [2] = target: T1, Serotonin 5HT2A; assay: Off‐target panel: Serotonin 5HT2A; type: cell-based
Protocol: as §1

Adenosine A2a = Adenosine A2a (Homo sapiens, UniProt P29274); assay: Off‐target panel: Adenosine A2a; type: cell-based; details: Agonist, read-out: Mean (PXC50)
Adenosine A2a, sequence (P29274 whole entry): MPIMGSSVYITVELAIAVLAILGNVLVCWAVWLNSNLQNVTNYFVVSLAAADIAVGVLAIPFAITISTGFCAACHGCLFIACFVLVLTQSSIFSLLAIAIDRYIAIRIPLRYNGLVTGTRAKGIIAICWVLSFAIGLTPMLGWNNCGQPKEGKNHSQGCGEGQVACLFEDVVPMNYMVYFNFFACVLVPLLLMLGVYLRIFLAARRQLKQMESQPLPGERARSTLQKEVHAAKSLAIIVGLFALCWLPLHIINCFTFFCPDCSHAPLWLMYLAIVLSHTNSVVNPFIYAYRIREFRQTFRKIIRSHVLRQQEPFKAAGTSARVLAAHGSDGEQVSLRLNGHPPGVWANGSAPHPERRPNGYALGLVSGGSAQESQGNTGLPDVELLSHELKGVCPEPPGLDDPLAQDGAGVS
Protocol: as §1

[3] = Oral pharmacokinetics in dog; type: in vivo; details: beagle, whole blood, ≤ 3 mg/kg, read-out: F (oral bioavailability)
Protocol: […] Blood samples were taken into EDTA, diluted and mixed with acetonitrile containing internal standard (alprazolam) and centrifuged to precipitate proteins. Aliquots of the resultant supernatant were analysed by LC‐MS/MS, and concentrations of GSK716 in blood were determined. Non‐compartmental pharmacokinetic analysis (NCA) was carried out using Phoenix WinNonLin 6.3 (Certara L.P.). Free drug was measured in Z α1‐antitrypsin transgenic mice by dialysing tissue samples in rapid equilibrium dialysis cassettes.

[4] = Oral pharmacokinetics in male CD‐1 mouse; type: in vivo
Protocol: Male CD‐1 mice, Han Wistar rats or beagle dogs were administered GSK716 as a suspension in 1% w/v aqueous methylcellulose via oral gavage at doses of 1 mg/kg (dog) or 10, 30 and 100 mg/kg (mouse, rat). Blood samples were taken into EDTA, diluted and mixed with acetonitrile containing internal standard (alprazolam) and centrifuged to precipitate proteins. Aliquots of the resultant supernatant were analysed by LC‐MS/MS, and concentrations of GSK716 in blood were determined. Non‐compartmental pharmacokinetic analysis (NCA) was carried out using Phoenix WinNonLin 6.3 (Certara L.P.). Free drug was measured in Z α1‐antitrypsin transgenic mice by dialysing tissue samples in rapid equilibrium dialysis cassettes.

NK1 (TACR1), sequence (P25103 whole entry, species assumed): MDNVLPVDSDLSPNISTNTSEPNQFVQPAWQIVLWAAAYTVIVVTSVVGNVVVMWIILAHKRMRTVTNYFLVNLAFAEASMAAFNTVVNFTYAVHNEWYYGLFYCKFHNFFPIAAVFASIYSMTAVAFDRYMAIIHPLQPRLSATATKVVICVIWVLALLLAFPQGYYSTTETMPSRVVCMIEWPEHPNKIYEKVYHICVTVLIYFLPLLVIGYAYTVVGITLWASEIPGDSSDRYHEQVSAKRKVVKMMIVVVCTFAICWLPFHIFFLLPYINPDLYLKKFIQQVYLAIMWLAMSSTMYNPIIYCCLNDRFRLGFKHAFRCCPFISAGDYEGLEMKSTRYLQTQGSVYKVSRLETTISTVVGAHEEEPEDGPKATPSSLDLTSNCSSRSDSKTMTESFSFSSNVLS

**Q.** Which results are given for `CCC[C@@H](NC(=O)c1cccc2c1CC(=O)N2)[C@@H](O)c1cccc(F)c1C` [GSK716]?
**A.** IC50 (NK1 (TACR1)): > 25.1 µM; change in circulating Z α1‐antitrypsin (Z α1‐antitrypsin; 10 mg/kg three times a day, oral, 6 days of dosing): significant, dose‐dependent increases; change in circulating Z α1‐antitrypsin (Z α1‐antitrypsin; 30 mg/kg three times a day, oral, 6 days of dosing): significant, dose‐dependent increases; mean increase of monomeric Z α1‐antitrypsin in plasma over pre‐dosing baseline (Z α1‐antitrypsin; 100 mg/kg three times a day, days 15 and 21 of dosing): sevenfold to eightfold; mean increase in circulating monomeric Z α1‐antitrypsin levels over pre‐dose (Z α1‐antitrypsin; 100 mg/kg three times a day, oral, 6 days of dosing): sevenfold; increase in circulating levels of Z α1‐antitrypsin (Z α1‐antitrypsin; Z α1‐antitrypsin transgenic mice, within 3 days): sevenfold; IC50 (Serotonin transporter): > 100 µM; EC50 (Serotonin 5HT2A [1]): > 100 µM; IC50 (Serotonin 5HT2A [1]): 63.1 µM; EC50 (Serotonin 5HT2A [2]): > 25.1 µM; IC50 (Serotonin 5HT2A [2]): > 25.1 µM; EC50 (Adenosine A2a): > 100 µM; bioavailability [3]: 71%; DNAUCinf in blood ([4]; single PO 10 mg/kg): 202 ± 101; DNAUCinf in blood ([4]; single PO 30 mg/kg): 294 ± 47; DNAUCinf in blood ([4]; single PO 100 mg/kg): 403 ± 246
